Measured values as given in patent publication US20230255873A1, “COSMETIC OR DERMATOLOGICAL PEPTIDE-BASED TREATMENT OF THE SKIN AND ITS INTEGUMENTS” (Sederma, priority 2020, published 2023).
The star is where a group is joined. Palmitoyl = CCCCCCCCCCCCCCCC(=O)*

Experiments:
equivalent skins = experiment: Thickness of the stratum corneum on equivalent skins; format: cell-based, human; conditions: 2 days of contact, vs control
Description: Equivalent skins were prepared by first manufacturing an equivalent dermis, then once it contracted, human keratinocytes were seeded on the surface of the gel. After 14 days, equivalent skins were obtained, on which carbopol gels containing the peptide of the invention or the solvent alone were applied to their surface. After 2 days of contact, the skins were frozen to be sectioned into thin 7 μm slides and then marked in order to visualize the macrostructure of the layers. A quantification of the thickness of the stratum corneum was carried out on photos using an image software.

P. acnes [1] = experiment: Biofilm stability of P. acnes (peptide added 24 hours after start of culture); format: cell-based, Propionibacterium acnes; conditions: peptide added 24 hours after the start of the culture
Description: The effect of the peptide on the biofilm stability was also evaluated, the peptide being only added 24 hours after the start of the P. acnes culture.

Propionibacterium acnes = Propionibacterium acnes growth inhibition test (time to OD of 1); format: cell-based; conditions: control 26 hours
Description: 1.4—Propionibacterium acnes Growth Inhibition Test Principle: Suspensions of Propionibacterium acnes of equivalent density are cultured in a suitable medium in the presence (test case) or absence (control case) of the preferred peptide according to the invention, in anaerobic condition, at 37° C. Samples are taken at regular intervals to measure the OD at 600 nm, to follow the growth of the bacterial population over time. The growth curve of each culture can therefore be established.

[2] = system: P. acnes (strain ATCC6919); experiment: Biofilm formation of P. acnes (crystal violet); format: cell-based, Propionibacterium acnes; conditions: 3 days
Description: The adhesion of 10^6 CFU/mL of P. acnes (strain ATCC6919) to a surface for 72 hours in an appropriate medium was evaluated. At the end of the contact plus more or less the peptide, the quantity of isolated cells, not attached, was estimated by an OD at 600 nm. The biofilm and the bacteria still attached were labeled with crystal violet solution for 20 min. After rinsing, the quantity of crystal violet remaining on the biofilms was assayed, after extraction, also with a measurement of OD at 600 nm.

[3] = system: P. acnes (strain ATCC6919); experiment: Adhesion of P. acnes to a surface; format: cell-based, Propionibacterium acnes; conditions: 48 hours and 72 hours, two concentrations tested
Excerpt: […] At the end of the contact plus more or less the peptide, the quantity of isolated cells, not attached, was estimated by an OD at 600 nm.

P. acnes [4] = experiment: P. acnes growth curve (time to OD600 nm = 0.5); format: cell-based, Propionibacterium acnes; conditions: for Time (in hour) to reach OD600 nm = 0.5: vehicle 42-44 h
Description: 1—P. acnes growth curve (same protocol as described above at point 1.4)
P. acnes is thawed and grown over 3 days in M20 media. Then, optical density at 600 nm (OD600) is measured and 2×10^6 CFU*/mL are plated in well plates. P. acnes is then treated with 6 ppm, 9 ppm and 12 ppm of peptides. To follow bacterial cell multiplication, OD600 is measured regularly for about 1 week. […] Statistical evaluations are performed on results using a Student t test. Two independent experiments are performed (N=2).

[5] = system: Normal Human Fibroblasts (NHF); experiment: Immuno-enzymatic tests on normal human fibroblasts (NHF) culture; format: cell-based; conditions: 3 days
Description: 1.3—Immuno-Enzymatic Tests on Normal Human Fibroblasts (NHF) Culture Principle: Normal Human Fibroblasts (NHF) are cultured in 24-well plates for 24 hours in the proliferation medium until confluence. The cells are then brought into contact or not (control case) with the preferred peptide according to the invention for 3 days in a medium without serum. The culture media are collected and the concentrations of various elements of the dermis or the basement membrane (PIP (carboxy-terminal propeptide of procollagen type I), collagen I, collagen IV, fibronectin) are measured by ELISA assays. An estimate of cell viability is also carried out at the end of culture, in order to weight the data from the ELISA, using an assay with the Hoechst 33258 reagent (DNA intercalator). A study of variances and a Student t test for paired series were carried out to judge the significance of the results.

[6] = system: normal human keratinocytes (NHK); experiment: Involucrin quantification by immunohistochemistry in NHK; format: cell-based; conditions: 5 ppm
Description: Normal human keratinocytes (NHK) are grown on wells plate. When subconfluence was reached, cells received various concentrations of the peptides. After few days, evaluation of differentiation is compared to solvent control under microscope and cells are fixed to allow the study of involucrin by immunohistochemistry.
Involucrin is an early marker of keratinocytes differentiation. The below table show the percentage of variation of involucrin vs. Control.

[7] = system: HaCaT (human keratinocyte line); experiment: ELISA assay of hyaluronic acid on HaCaT culture; format: cell-based; conditions: 72 hours of contact
Description: This same type of test was carried out on a HaCaT culture (human keratinocyte line), but without the irradiation step, with a contact time of 72 hours between the cells and the peptide of the invention and an ELISA assay of hyaluronic acid on the culture medium.

HaCaTs = experiment: Scratch test on HaCaTs (keratinocyte migration, with or without P. acnes); format: cell-based, human; conditions: 24 hours after injury
Description: 1.5—Scratch Test on HaCaTs
Principle: HaCats are inoculated in a 6-well plate in a suitable medium until confluence. 24-hour contact with the peptide according to the invention (test cases) or its excipient (control case) in the culture medium is then carried out. After this first step, wounds are made on the cell layers in the experimental wells (with a dedicated tool to make reproducible and small wounds); two wells per case are dedicated to cell counting; rinsing with PBS and an addition of culture medium with or without the peptide according to the invention depending on the case, in the presence or absence of Propionibacterium acnes (100 bacteria for 1 HaCaT cell) are carried out. Photos are taken (to calculate the area of the wound at T0 over a specific area). The cultures are stopped after 24 hours of incubation and photos are taken on the same areas as at T0. A photo processing software (Image J) can calculate for each case the area at T0 and the area recolonized by cells, 24 hours after injury, and establish a ratio.

S. epidermidis = S. epidermidis growth (selectivity test); format: cell-based; conditions: 6 ppm and 12 ppm, 48 hours
Description: S. epidermidis was inoculated in an appropriate medium and its growth was followed over time. The peptide according to the invention (6 ppm and 12 ppm) was tested on these cells for 48 hours in comparison with the control case (n=6).

palmitoyl-lysyl-threonyl-serine-lysyl-serine (Palmitoyl-KTSKS-OH; SMILES CCCCCCCCCCCCCCCC(=O)N[C@@H](CCCCN)C(=O)N[C@H](C(=O)N[C@@H](CO)C(=O)N[C@@H](CCCCN)C(=O)N[C@@H](CO)C(=O)O)[C@@H](C)O) [Pal-KTSKS]
Thickness of the stratum corneum, Variation (%) (equivalent skins; 8 ppm of peptide in carbopol gel): +150%; p < 0.01
Thickness of the stratum corneum, Variation (%) (equivalent skins; 10 ppm of peptide in carbopol gel): +143%; p < 0.05
Reduction of the biofilm formed at 72 hours vs control (biofilm stability) (P. acnes [1]; 6 ppm): 89%
Reduction of the biofilm formed at 72 hours vs control (biofilm stability) (P. acnes [1]; 12 ppm): 93%
Growth of P. acnes: time required to reach an OD of 1 (Propionibacterium acnes; 6 ppm of peptide): 54 h
Growth of P. acnes: time required to reach an OD of 1 (Propionibacterium acnes; 9 ppm of peptide): 103 h
Growth of P. acnes: time required to reach an OD of 1 (Propionibacterium acnes; 12 ppm of peptide): 135 h
Formation of the biofilm by P. acnes, variation vs control ([2]; 6 ppm): −98%
Formation of the biofilm by P. acnes, variation vs control ([2]; 12 ppm): −99%
Drop in adhesion of P. acnes [3]: more than 83%
Delay in P. acnes growth versus vehicle (P. acnes [4]; 6 ppm): +5 h
Time (in hour) to reach OD600 nm = 0.5 (P. acnes [4]; 6 ppm): 48.8 h
Delay in P. acnes growth versus vehicle (P. acnes [4]; 9 ppm): +11 h
Time (in hour) to reach OD600 nm = 0.5 (P. acnes [4]; 9 ppm): 55.0 h
Delay in P. acnes growth versus vehicle (P. acnes [4]; 12 ppm): +43 h
Time (in hour) to reach OD600 nm = 0.5 (P. acnes [4]; 12 ppm): 87.3 h
Collagen I Variation %/control ([5]; 8 ppm): +75%; p < 0.01
Collagen IV Variation %/control ([5]; 8 ppm): +18%; p < 0.01
Fibronectin Variation %/control ([5]; 8 ppm): +40%; p < 0.01
Terminal C peptide of pro-collagen I variation %/control ([5]; 8 ppm): +61%; p < 0.01
Collagen I Variation %/control ([5]; 10 ppm): +184%; p < 0.01
Collagen IV Variation %/control ([5]; 10 ppm): +98%; p < 0.01
Fibronectin Variation %/control ([5]; 10 ppm): +67%; p < 0.01
Terminal C peptide of pro-collagen I variation %/control ([5]; 10 ppm): +94%; p < 0.01
Involucrin (% var vs. Control) [6]: +177%; p < 0.01
Secretion of hyaluronic acid, Variation %/non treated cells ([7]; 6 ppm): +33%; p < 0.01
Secretion of hyaluronic acid, Variation %/non treated cells ([7]; 8 ppm): +42%; p < 0.01
Secretion of hyaluronic acid, Variation %/non treated cells ([7]; 10 ppm): +62%; p < 0.01
Secretion of hyaluronic acid, Variation %/non treated cells ([7]; 15 ppm): +107%; p < 0.01
Keratinocyte migration, variation compared to the control (HaCaTs; With P. acnes (Reference 2), 5 ppm of peptide): −49.67%
Keratinocyte migration, variation compared to the control (HaCaTs; With P. acnes (Reference 2), 7 ppm of peptide): −66.15%
Keratinocyte migration, variation compared to the control (HaCaTs; Without P. acnes, 5 ppm of peptide): −3% (nsd)
Keratinocyte migration, variation compared to the control (HaCaTs; Without P. acnes, 7 ppm of peptide): −0.36% (nsd)
Growth of S. epidermidis relative to control (S. epidermidis): slight, temporary slowdown in growth
